Experimental data: patent publication US9669003B2, “Use of flavone and flavanone derivatives in preparation of sedative and hypnotic drugs” (priority 2012, dated 2017)
Marks after values point to notes of the source that are not given here.

Key:
Type in all cases: in vivo
Kunming mice [1] = experiment: Influence on hypnosis effect with pentobarbital sodium doses below the threshold (25 mg/kg i.p.); details: pentobarbital sodium 25 mg/kg i.p. 60 min later, sleep observed in 30 min, n = 10
Method in brief: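 Kunming mice (10 per group, half female) given single oral doses of 25, 50 or 100 mg/kg in 0.5% CMC-Na; 60 min later pentobarbital sodium 25 mg/kg i.p. Sleep (righting reflex lost >1 min) scored within 30 min as percentage asleep, χ2 test.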

Kunming mice [2] = experiment: Influence on autonomic activity of normal mice (ZIL-2 mice autonomic activity meter, counts within 10 min); details: intragastric, x ± s, n = 10; for Times of activities in 1 h after drug administration/10 min: 1 h after administration; for Times of activities in 2 h after drug administration/10 min: 2 h after administration; for Times of activities in 24 h after drug administration/10 min: 24 h after administration
Method in brief: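 Kunming mice (10 per group, half each sex) were dosed at 25, 50 or 100 mg/kg in 0.5% CMC-Na. Spontaneous activity counts over 10 min were recorded at 1 h, 2 h and 24 h post-dose. Groups were compared by ANOVA with Dunnett's test after Levene's check.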

Kunming mice [3] = experiment: Influence on hypnosis effect with pentobarbital sodium doses at the threshold (50 mg/kg i.p.); details: pentobarbital sodium 50 mg/kg i.p. 60 min later, x ± s, n = 10
Method in brief: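 Kunming mice (10/group, half each sex) received compound in 0.5% CMC-Na intragastrically at 25, 50 or 100 mg/kg; 60 min later given 0.3% sodium pentobarbital 50 mg/kg i.p. Sleep latency and duration recorded by loss of righting reflex over 1 min; ANOVA and χ2 for sleep incidence.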

[4] = test drug 25 mg/kg intragastric single dose
[5] = test drug 50 mg/kg intragastric single dose
[6] = test drug 100 mg/kg intragastric single dose
[7] = 25 mg/kg intragastric single dose
[8] = 50 mg/kg intragastric single dose
[9] = 100 mg/kg intragastric single dose

| Compound | Number of sleeping animals (Kunming mice [1]; [4]) | rate of sleeping (%) (Kunming mice [1]; [4]) | Number of sleeping animals (Kunming mice [1]; [5]) | rate of sleeping (%) (Kunming mice [1]; [5]) | Number of sleeping animals (Kunming mice [1]; [6]) | rate of sleeping (%) (Kunming mice [1]; [6]) | Times of activities in 1 h after drug administration/10 min (Kunming mice [2]; 25 mg/kg) | Times of activities in 2 h after drug administration/10 min (Kunming mice [2]; 25 mg/kg) | Times of activities in 24 h after drug administration/10 min (Kunming mice [2]; 25 mg/kg) | Times of activities in 1 h after drug administration/10 min (Kunming mice [2]; 50 mg/kg) | Times of activities in 2 h after drug administration/10 min (Kunming mice [2]; 50 mg/kg) | Times of activities in 24 h after drug administration/10 min (Kunming mice [2]; 50 mg/kg) | Times of activities in 1 h after drug administration/10 min (Kunming mice [2]; 100 mg/kg) | Times of activities in 2 h after drug administration/10 min (Kunming mice [2]; 100 mg/kg) | Times of activities in 24 h after drug administration/10 min (Kunming mice [2]; 100 mg/kg) | duration of sleep (Kunming mice [3]; [7]) | time to sleep (Kunming mice [3]; [7]) | duration of sleep (Kunming mice [3]; [8]) | time to sleep (Kunming mice [3]; [8]) | duration of sleep (Kunming mice [3]; [9]) | further results |
| --- | --- | --- | --- | --- | --- | --- | --- | --- | --- | --- | --- | --- | --- | --- | --- | --- | --- | --- | --- | --- | --- |
| Cc1cc(C2CC(=O)c3c(cccc3[N+](=O)[O-])O2)ccc1Oc1ccccc1 (stereo not drawn) [Example 63] | 6 | 60** % | 8 | 80*** % | 9 | 90*** % | 250.6 ± 35.5 /10 min | 239.3 ± 34.6 /10 min | 269.5 ± 79.5 /10 min | 168.5 ± 53.0 /10 min | 151.3 ± 57.0 /10 min | 283.8 ± 79.3 /10 min | 124.5 ± 42.0 /10 min | 117.3 ± 54.8 /10 min | 320.3 ± 76.0 /10 min | 47.87 ± 14.62 min | 3.43 ± 1.46 min | 62.64 ± 22.64 min | 3.09 ± 1.41 min | 87.42 ± 18.53 min | time to sleep (Kunming mice [3]; [9]): 2.33 ± 1.27 min |
| 6,7,8,4′-tetramethoxyl-flavone [Example 6] | 3 | 30% | 5 | 50** % | 6 | 60** % | 330.1 ± 51.2 /10 min | 314.5 ± 56.7 /10 min | 338.1 ± 96.3 /10 min | 286.7 ± 61.7 /10 min | 279.5 ± 48.2 /10 min | 311.5 ± 91.5 /10 min | 238.3 ± 36.3 /10 min | 249.8 ± 45.8 /10 min | 308.2 ± 82.7 /10 min | 29.81 ± 21.65 min | 5.51 ± 1.39 min | 47.21 ± 22.93 min | 4.20 ± 1.40 min | 55.33 ± 19.32 min | time to sleep (Kunming mice [3]; [9]): 3.91 ± 2.16 min |
| N#CSc1ccc(-c2cc(=O)c3cc(N)c(F)c(C#N)c3o2)cc1O [Example 28] | 3 | 30% | 5 | 50** % | 6 | 60** % | 289.8 ± 50.1 /10 min | 278.3 ± 42.9 /10 min | 315.2 ± 76.3 /10 min | 248.9 ± 61.1 /10 min | 260.8 ± 58.1 /10 min | 327.5 ± 80.7 /10 min | 144.2 ± 32.5 /10 min | 237.5 ± 44.3 /10 min | 308.7 ± 84.7 /10 min | 27.68 ± 23.55 min | 5.48 ± 2.25 min | 46.89 ± 23.61 min | 4.31 ± 1.19 min | 55.49 ± 21.02 min | time to sleep (Kunming mice [3]; [9]): 3.93 ± 2.45 min |
| C=Cc1cc(C2CC(=O)c3cc(C(N)=O)c(C4CCSC4)c(Oc4ccccc4)c3O2)ccc1N (stereo not drawn) [Example 57] | 4 | 40* % | 6 | 60** % | 7 | 70** % | 299.9 ± 58.2 /10 min | 288.1 ± 73.0 /10 min | 311.7 ± 81.2 /10 min | 245.4 ± 45.9 /10 min | 240.8 ± 63.24 /10 min | 315.9 ± 85.6 /10 min | 206.6 ± 44.2 /10 min | 199.6 ± 49.9 /10 min | 325.7 ± 82.6 /10 min | 41.14 ± 23.51 min | 4.61 ± 1.53 min | 48.87 ± 19.80 min | 4.13 ± 1.71 min | 54.44 ± 21.81 min | time to sleep (Kunming mice [3]; [9]): 3.43 ± 1.20 min |
